{
  "source": "patent US20080076703A1",
  "about": "“Compositions and methods for the enhanced uptake of therapeutic agents through the bladder epithelium” (Cell Genesys, Inc., priority 2003, published 2008)",
  "key": {"murine bladders [1]": {"tested_on": "murine bladders", "assay": "FITC-LC-TAT peptide uptake in bladder after intravesical instillation (fluorescence microscopy of bladder sections)", "type": "in vivo, Balb/c mice", "conditions": "0.1% DDM pretreatment; 5 μg FITC-LC-TAT instilled, retained 15 min", "protocol": "Female Balb/c mice were used due to the ease of urethral cannulation and intravesical instillation. All animals were housed according to institutional regulations for experimental animals. Balb/c mice (20 gm body weight) were anesthetized with Isoflurane, and a 24-gauge catheter was introduced through the urethra into the bladder. The residual urine was emptied and the bladder was flushed three times with 100 μL of PBS employing a 25-gauge needle inserted into the external end of the catheter. After washing, bladder pretreatment was performed employing the various test reagents as follows: the pretreatment reagent (DDM) was diluted to the desired concentration in PBS, and the bladder was quickly rinsed twice with 100 μL each of the reagent. After the rinsing steps, 100 μL of the pretreatment reagent was introduced via the catheter and retained in the bladder for 5 minutes, followed by an additional quick rinse with the pretreatment reagent. The bladder was then washed three times with 100 μL each of PBS. […]\n(§1) 70 μL of the solution was intravesically instilled in the bladder and retained for 15 min after which the bladder was washed 3 times with 100 μL each of PBS. […] Triplicate samples were adjusted to 2.00 mL with 0.2 M carbonate buffer (pH=9.34) and spectrophotometric emission was measured at 538 nm following excitation at 485 nm. […]"}, "bladder tissue": {"tested_on": "bladder tissue", "conditions": "after DDM pretreatment; cited from earlier work"}, "murine bladders [2]": {"tested_on": "murine bladders", "assay": "Oregon Green 488 Paclitaxel uptake in bladder after intravesical instillation (fluorescence microscopy of bladder sections)", "type": "in vivo, Balb/c mice", "conditions": "DDM pretreatment 5 min; Oregon Green 488 Paclitaxel 5 μg instilled, retained 15 min", "protocol": "(§2) Female Balb/c mice were used due to the ease of urethral cannulation and intravesical instillation. All animals were housed according to institutional regulations for experimental animals. Balb/c mice (20 gm body weight) were anesthetized with Isoflurane, and a 24-gauge catheter was introduced through the urethra into the bladder. The residual urine was emptied and the bladder was flushed three times with 100 μL of PBS employing a 25-gauge needle inserted into the external end of the catheter. […]\nas §1\nOn examination of the histological sections of the bladder that had been pretreated with PBS followed by the intravesical retention of Paclitaxel, it was observed that there were very small patchy areas of non-specifically bound drug on the luminal surface of the bladder (FIGS. 1A-1C). Most of the bladder surface was devoid of any fluorescence that indicated the absence of any entry of the drug into the bladder tissue. […]"}, "Mouse bladders": {"tested_on": "Mouse bladders", "assay": "Systemic uptake of intravesically instilled sodium fluorescein (serum fluorescence)", "type": "in vivo, Balb/c mice", "conditions": "0.1% DDM pretreatment 5 min, 0.1% sodium fluorescein instilled, retained 15 min", "protocol": "as §2, §1\nFluorescein has been used to measure alterations in bladder permeability after bladder mucosal injury in mice [Eichel, L. et al., (2001) Urology. […] Following 3× wash of the bladder with PBS, blood was removed from the mice via cardiac puncture and the serum was analyzed for systemic distribution of intravesically instilled sodium fluorescein as described above. […]"}, "[3]": {"tested_on": "urothelium (GAG layer, tight junctions)", "assay": "Electron Microscopy of the DDM pretreated bladder", "type": "in vivo"}},
  "data": [
    {"smiles": "CCCCCCCCCCCCO[C@@H]1O[C@H](CO)[C@@H](O[C@H]2O[C@H](CO)[C@@H](O)[C@H](O)[C@H]2O)[C@H](O)[C@H]1O", "note": "[DDM, n-dodecyl-β-D-maltoside]", "values": [
      {"measurement": "FITC-LC-TAT fluorescent signal in epithelial layer on luminal surface of bladder", "setting": "murine bladders [1]", "result": "distinct signal"},
      {"measurement": "penetration of adenovirus particles (70 nm to 100 nm) into bladder tissue", "setting": "bladder tissue", "result": "able to penetrate the bladder tissue"},
      {"measurement": "uptake of Paclitaxel into bladder tissue (fluorescence)", "setting": "murine bladders [2]", "result": "significant uptake"},
      {"measurement": "increase in the circulating levels of fluorescein as compared to PBS pretreatment", "setting": "Mouse bladders", "result": "5-10 ×"},
      {"measurement": "GAG layer on the urothelium (electron microscopy)", "setting": "[3]", "result": "absent"},
      {"measurement": "tight junctions along the surface (electron microscopy)", "setting": "[3]", "result": "Disruption of tight junctions"}
    ]}
  ]
}
